Reference: article PMC4158172 (European Journal of Clinical Pharmacology, 2014)
Several values for one entry are separate records, joined by “and”; a condition that tells them apart may be missing. Identical values can stand only once.

What was measured:
CYP2B6 = test system: CYP2B6; set-up: method as in PMID 23132334; conditions: in vitro; cited from earlier work
OATP1B1 = conditions: cited from earlier work
[1] = DTG steady-state plasma pharmacokinetics, interaction with TPV/r
Method: Two studies were conducted in healthy volunteer subjects as judged by physical exam, medical history and laboratory testing. These studies are registered with ClinicalTrials.gov (NCT01068925; protocol number ING113096 and NCT01098526; protocol number ING114005). Adult men and women of non-childbearing potential were enrolled. Subjects were excluded if they tested positive for HIV or hepatitis C antibodies or hepatitis B surface antigen. Subjects were not allowed to receive any prescription or non-prescription drugs, including vitamins or herbal products, within 7 days of dosing and throughout the study.
This was a phase I, open-label, single-sequence, three-period, steady-state study. Eighteen subjects received DTG 50 mg q24h for 5 days (period 1). […] There was no washout between treatment periods. All doses were administered with a moderate-fat meal.
Dolutegravir and EFV were measured in plasma samples using validated methods, which consisted of extraction from plasma by protein precipitation with acetonitrile containing [^15N^2H7]dolutegravir or [^2H4]-efavirenz as the internal standards, respectively. The plasma extracts were injected onto a 2.1 × 50 mm 3.5-micron XBridge™ C18 column (Waters Associates, Milford, MA, USA). Dolutegravir was eluted with a mobile phase consisting of 40 % acetonitrile in aqueous 0.1 % formic acid, and EFV was eluted with a mobile phase consisting of acetonitrile/0.1 % formic acid (65 % v/v) in a 5-mM ammonium acetate buffer containing 0.1 % acetic acid (35 % v/v). The eluates were detected by using a Sciex API 4000™ (AB Sciex, Framingham, MA, USA) equipped with a TurboIonSpray® ionisation source with multiple reaction monitoring (DTG positive ion mode m/z 420 > 277; internal standard m/z 428 > 277; EFV negative ion mode m/z 314 > 243; internal standard m/z 318 > 247). Data acquisition and processing were performed with Analyst 1.4.2 software (AB Sciex), and linear regression analysis calculations were performed using the Study Management System, SMS™ 2000 v.2.2 (GlaxoSmithKline, Research Triangle Park, NC, USA). The calibration range for DTG was 0.020 to 20 μg/mL and for EFV was 0.10 to 20 μg/mL. Quality control samples prepared separately at three concentrations were stored with study samples and analysed with each batch of samples against separately prepared calibration standards.
A non-compartmental PK analysis of the concentration-time data was performed with WinNonlin (version 5.2, Pharsight Corporation, Mountain View, CA, USA). Plasma PK parameters for both DTG and EFV were calculated using actual recorded times for each treatment. Parameters that were determined included AUC from time zero to the end of the dosage interval (AUC(0–τ)), maximum observed plasma concentration (C max), the time of maximum observed plasma concentration (T max) and plasma concentration at the end of the dosing interval (C τ).
Statistical analyses were performed on the log-transformed PK parameters: AUC(0–τ), C τ and C max. […] Efavirenz PK data were compared with historical data. Subject was fitted as a random effect and treatment was fitted as a fixed effect in the model. The ratio of geometric least-squares means and associated 90 % confidence intervals were estimated for the PK parameters of interest.

[2] = DTG steady-state plasma pharmacokinetics, interaction with EFV; format: in vivo, human; conditions: for Cmax / AUC / concentration at 24 h / Tmax: both sexes, human, oral, fasting; for AUC: read-out: AUC(0–τ); for concentration at 24 h: read-out: C τ; for Tmax: n=12, median (range)
Method: There was no washout between treatment periods. All doses were administered in the fasting state. […]

P-glycoprotein (P-gp) = test system: P-glycoprotein (P-gp); set-up: method as in PMID 23132334; conditions: in vitro; cited from earlier work
[3] = both, human, plasma, oral, 50 mg
[4] = co-administration with TPV/r 500/200 mg q12h
[5] = plasma, DTG 50 mg + EFV 600 mg q24h for 14 days, n=12, geometric mean (CV%)
[6] = plasma, DTG 50 mg q24h alone for 5 days, n=12, geometric mean (CV%)
[7] = co-administration of EFV 600 mg q24h and DTG 50 mg q24h

C[C@@H]1CCO[C@H]2Cn3cc(C(=O)NCc4ccc(F)cc4F)c(=O)c(O)c3C(=O)N12 [DTG, Dolutegravir]
induction of CYP2B6 (CYP2B6): not an inducer
direct inhibition of OATP1B1 (OATP1B1): minimal or no direct inhibition
GLS mean ratio (90 % CI) of AUC(0–τ) ([1]; DTG+TPV/r vs DTG alone, n=14): 0.409 (0.379, 0.443)
GLS mean ratio (90 % CI) of C max ([1]; DTG+TPV/r vs DTG alone, n=14): 0.535 (0.500, 0.572)
GLS mean ratio (90 % CI) of C τ ([1]; DTG+TPV/r vs DTG alone, n=14): 0.239 (0.212, 0.270)
Tmax ([1]; both, human, in vivo, 50 mg): 3 h
AUC [1, 3]: 64500 ng·h/mL
Cmax [1, 3]: 4530 ng/mL
concentration at 24 h [1, 3]: 1480 ng/mL
decrease in plasma DTG AUC(0–τ) [1, 4]: 59%
decrease in plasma DTG C max [1, 4]: 46%
decrease in plasma DTG C τ [1, 4]: 76% and 75%
GLS mean ratio (90 % CI) of AUC(0–τ) ([2]; DTG+EFV vs DTG alone, n=12): 0.431 (0.346, 0.536)
GLS mean ratio (90 % CI) of C max ([2]; DTG+EFV vs DTG alone, n=12): 0.608 (0.506, 0.730)
GLS mean ratio (90 % CI) of C τ ([2]; DTG+EFV vs DTG alone, n=12): 0.245 (0.179, 0.336)
Cmax ([2]; DTG 50 mg q24h alone for 5 days, healthy subjects n=12, plasma, geometric mean (CV%)): 3080 ng/mL
Cmax [2, 5]: 1870 ng/mL
AUC [2, 5]: 18200 ng·h/mL
concentration at 24 h [2, 5]: 220 ng/mL
Tmax ([2]; plasma, DTG 50 mg + EFV 600 mg q24h for 14 days): 1 h
AUC [2, 6]: 42300 ng·h/mL
concentration at 24 h [2, 6]: 910 ng/mL
Tmax ([2]; plasma, DTG 50 mg q24h alone for 5 days): 2 h
decrease in plasma DTG AUC(0–τ) [2, 7]: 57%
decrease in plasma DTG C max [2, 7]: 39%
decrease in plasma DTG C τ [2, 7]: 75%
direct inhibition of P-gp (P-glycoprotein (P-gp)): minimal or no direct inhibition
